Data: patent US9518018B2, “3-alkoxy, thioalkyl and amino-4-amino-6-(substituted)picolinates and their use as herbicides” (Dow AgroSciences LLC, priority 2011, dated 2016)

What follows are compounds tested on ZEAMX: corn (Zea mays) (assay: Post-Emergent Test I herbicidal activity). Conditions: Zea mays, post-emergence, 336 h, Table 3, 140 g ai/ha, read-out: Visual Growth Reduction (%)-14 Days after Application ZEAMX.
Format: in vivo
Method: (§1) Seeds or nutlets of the desired test plant species were planted in Sun Gro Metro-Mix® 360 planting mixture, which typically has a pH of 6.0 to 6.8 and an organic matter content of about 30 percent, in plastic pots with a surface area of 64 square centimeters. When required to ensure good germination and healthy plants, a fungicide treatment and/or other chemical or physical treatment was applied. The plants were grown for 7-21 d in a greenhouse with an approximate 15 h photoperiod which was maintained at about 23-29° C. during the day and 22-28° C. during the night. Nutrients and water were added on a regular basis and supplemental lighting was provided with overhead metal halide 1000-Watt lamps as necessary. The plants were employed for testing when they reached the first or second true leaf stage.
(§2) A weighed amount, determined by the highest rate to be tested, of each test compound was placed in a 25 mL glass vial and was dissolved in 4 mL of a 97:3 v/v mixture of acetone and DMSO to obtain concentrated stock solutions. […] The concentrated stock solutions obtained were diluted with 20 mL of an aqueous mixture containing acetone, water, isopropyl alcohol, DMSO, Atplus 411F crop oil concentrate, and Triton® X-155 surfactant in a 48.5:39:10:1.5:1.0:0.02 v/v ratio to obtain spray solutions containing the highest application rates. Additional application rates were obtained by serial dilution of 12 mL of the high rate solution into a solution containing 2 mL of 97:3 v/v mixture of acetone and DMSO and 10 mL of an aqueous mixture containing acetone, water, isopropyl alcohol, DMSO, Atplus 411F crop oil concentrate, and Triton X-155 surfactant in a 48.5:39:10:1.5:1.0:0.02 v/v ratio to obtain ½×, ¼×, ⅛× and 1/16× rates of the high rate. Compound requirements are based upon a 12 mL application volume at a rate of 187 liters per hectare (L/ha). Formulated compounds were applied to the plant material with an overhead Mandel track sprayer equipped with 8002E nozzles calibrated to deliver 187 L/ha over an application area of 0.503 square meters at a spray height of 18 inches (43 cm) above the average plant canopy height. Control plants were sprayed in the same manner with the solvent blank.
(§3) The treated plants and control plants were placed in a greenhouse as described above and watered by subirrigation to prevent wash-off of the test compounds. After 14 d, the condition of the test plants as compared with that of the untreated plants was determined visually and scored on a scale of 0 to 100 percent where 0 corresponds to no injury and 100 corresponds to complete kill.
(§4) By applying the well-accepted probit analysis as described by J. Berkson in Journal of the […], 48, 565 (1953) and by D. Finney in “Probit Analysis” Cambridge University Press (1952), the above data can be used to calculate GR20, GR50 and GR80 values, which are defined as growth reduction factors that correspond to the effective dose of herbicide required to kill or control 20 percent, 50 percent or 80 percent, respectively, of a target plant.

SMILES | pest or weed control at 140 g/ha
COc1c(C(=O)O)nc(-c2ccc(Cl)c(C(C)F)c2F)c(F)c1N (stereo not shown) [Compound 65] | 70%
COc1c(N)cc(C(C)F)nc1C(=O)O (stereo not shown) [Compound 84, 4-amino-6-(1-fluoroethyl)-3-methoxypicolinic acid] | 0%
COC(=O)c1nc(-c2ccc(I)c(F)c2)c(F)c(N)c1OC [Compound 27] | 70%
CCOC(=O)c1nc(-c2ccc(Cl)cc2F)cc(N)c1SCC(F)(F)F [Compound 89, Ethyl 4-amino-6-(4-chloro-2-fluorophenyl)-3-((2,2,2-trifluoroethyl)thio)picolinate] | 0%
COC(=O)c1nc(-c2ccc(I)cc2)c(F)c(N)c1OC [Compound 23, methyl 4-amino-5-fluoro-6-(4-iodophenyl)-3-methoxypicolinate] | 70%

Same assay, conditions: Zea mays, post-emergence, 336 h, Table 3, 280 g ai/ha, read-out: Visual Growth Reduction (%)-14 Days after Application ZEAMX

SMILES | pest or weed control at 280 g/ha
CCOC(=O)c1nc(-c2ccc(Cl)c(OC)c2F)cc(N)c1OC(F)F [Compound 8, ethyl 4-amino-6-(4-chloro-2-fluoro-3-methoxyphenyl)-3-(difluoromethoxy)picolinate] | 0%
C=Cc1nc(C(=O)OC)c(OC)c(N)c1F [Compound 12, methyl 4-amino-5-fluoro-3-methoxy-6-vinylpicolinate] | 0%

Each compound was assayed on CYPES: yellow nutsedge (Cyperus esculentus) (assay: Post-Emergent Test I herbicidal activity). Conditions: post-emergence, 336 h, Table 3, 140 g ai/ha, read-out: Visual Growth Reduction (%)-14 Days after Application CYPES.
Format: in vivo
Method: as §1, §2, §3, §4

SMILES | pest or weed control at 140 g/ha
COc1c(C(=O)O)nc(-c2ccc(Cl)c(C(C)F)c2F)c(F)c1N (stereo not shown) [Compound 65] | 100%
COc1c(N)cc(C(C)F)nc1C(=O)O (stereo not shown) [Compound 84, 4-amino-6-(1-fluoroethyl)-3-methoxypicolinic acid] | 0%
COC(=O)c1nc(-c2ccc(I)c(F)c2)c(F)c(N)c1OC [Compound 27] | 100%
CCOC(=O)c1nc(-c2ccc(Cl)cc2F)cc(N)c1SCC(F)(F)F [Compound 89, Ethyl 4-amino-6-(4-chloro-2-fluorophenyl)-3-((2,2,2-trifluoroethyl)thio)picolinate] | 0%
COC(=O)c1nc(-c2ccc(I)cc2)c(F)c(N)c1OC [Compound 23, methyl 4-amino-5-fluoro-6-(4-iodophenyl)-3-methoxypicolinate] | 100%

Same assay, conditions: post-emergence, 336 h, Table 3, 280 g ai/ha, read-out: Visual Growth Reduction (%)-14 Days after Application CYPES

SMILES | pest or weed control at 280 g/ha
CCOC(=O)c1nc(-c2ccc(Cl)c(OC)c2F)cc(N)c1OC(F)F [Compound 8, ethyl 4-amino-6-(4-chloro-2-fluoro-3-methoxyphenyl)-3-(difluoromethoxy)picolinate] | 0%
C=Cc1nc(C(=O)OC)c(OC)c(N)c1F [Compound 12, methyl 4-amino-5-fluoro-3-methoxy-6-vinylpicolinate] | 0%

The compounds below were run on ABUTH: velvetleaf (Abutilon theophrasti) (assay: Post-Emergent Test I herbicidal activity). Conditions: Abutilon theophrasti, post-emergence, 336 h, Table 3, 140 g ai/ha, read-out: Visual Growth Reduction (%)-14 Days after Application ABUTH.
Format: in vivo
Method: as §1, §2, §3, §4

SMILES | pest or weed control at 140 g/ha
COc1c(C(=O)O)nc(-c2ccc(Cl)c(C(C)F)c2F)c(F)c1N (stereo not shown) [Compound 65] | 100%
COc1c(N)cc(C(C)F)nc1C(=O)O (stereo not shown) [Compound 84, 4-amino-6-(1-fluoroethyl)-3-methoxypicolinic acid] | 10%
COC(=O)c1nc(-c2ccc(I)c(F)c2)c(F)c(N)c1OC [Compound 27] | 60%
CCOC(=O)c1nc(-c2ccc(Cl)cc2F)cc(N)c1SCC(F)(F)F [Compound 89, Ethyl 4-amino-6-(4-chloro-2-fluorophenyl)-3-((2,2,2-trifluoroethyl)thio)picolinate] | 30%
COC(=O)c1nc(-c2ccc(I)cc2)c(F)c(N)c1OC [Compound 23, methyl 4-amino-5-fluoro-6-(4-iodophenyl)-3-methoxypicolinate] | 70%

Same assay, conditions: Abutilon theophrasti, post-emergence, 336 h, Table 3, 280 g ai/ha, read-out: Visual Growth Reduction (%)-14 Days after Application ABUTH

SMILES | pest or weed control at 280 g/ha
CCOC(=O)c1nc(-c2ccc(Cl)c(OC)c2F)cc(N)c1OC(F)F [Compound 8, ethyl 4-amino-6-(4-chloro-2-fluoro-3-methoxyphenyl)-3-(difluoromethoxy)picolinate] | 25%
C=Cc1nc(C(=O)OC)c(OC)c(N)c1F [Compound 12, methyl 4-amino-5-fluoro-3-methoxy-6-vinylpicolinate] | 0%

These compounds were tested on ORYSA: rice (Oryza sativa) (assay: Post-Emergent Test I herbicidal activity). Conditions: post-emergence, 336 h, Table 3, 140 g ai/ha, read-out: Visual Growth Reduction (%)-14 Days after Application ORYSA.
Format: in vivo
Method: as §1, §2, §3, §4

SMILES | pest or weed control at 140 g/ha
COc1c(C(=O)O)nc(-c2ccc(Cl)c(C(C)F)c2F)c(F)c1N (stereo not shown) [Compound 65] | 0%
COc1c(N)cc(C(C)F)nc1C(=O)O (stereo not shown) [Compound 84, 4-amino-6-(1-fluoroethyl)-3-methoxypicolinic acid] | 0%
COC(=O)c1nc(-c2ccc(I)c(F)c2)c(F)c(N)c1OC [Compound 27] | 0%
CCOC(=O)c1nc(-c2ccc(Cl)cc2F)cc(N)c1SCC(F)(F)F [Compound 89, Ethyl 4-amino-6-(4-chloro-2-fluorophenyl)-3-((2,2,2-trifluoroethyl)thio)picolinate] | 0%
COC(=O)c1nc(-c2ccc(I)cc2)c(F)c(N)c1OC [Compound 23, methyl 4-amino-5-fluoro-6-(4-iodophenyl)-3-methoxypicolinate] | 0%

Same assay, conditions: post-emergence, 336 h, Table 3, 280 g ai/ha, read-out: Visual Growth Reduction (%)-14 Days after Application ORYSA

SMILES | pest or weed control at 280 g/ha
CCOC(=O)c1nc(-c2ccc(Cl)c(OC)c2F)cc(N)c1OC(F)F [Compound 8, ethyl 4-amino-6-(4-chloro-2-fluoro-3-methoxyphenyl)-3-(difluoromethoxy)picolinate] | 0%
C=Cc1nc(C(=O)OC)c(OC)c(N)c1F [Compound 12, methyl 4-amino-5-fluoro-3-methoxy-6-vinylpicolinate] | 0%

Each compound was assayed on ECHCG: barnyardgrass (Echinochloa crus-galli) (assay: Post-Emergent Test I herbicidal activity). Conditions: post-emergence, 336 h, Table 3, 140 g ai/ha, read-out: Visual Growth Reduction (%)-14 Days after Application ECHCG.
Format: in vivo
Method: as §1, §2, §3, §4

SMILES | pest or weed control at 140 g/ha
COc1c(C(=O)O)nc(-c2ccc(Cl)c(C(C)F)c2F)c(F)c1N (stereo not shown) [Compound 65] | 65%
COc1c(N)cc(C(C)F)nc1C(=O)O (stereo not shown) [Compound 84, 4-amino-6-(1-fluoroethyl)-3-methoxypicolinic acid] | 0%
COC(=O)c1nc(-c2ccc(I)c(F)c2)c(F)c(N)c1OC [Compound 27] | 60%
CCOC(=O)c1nc(-c2ccc(Cl)cc2F)cc(N)c1SCC(F)(F)F [Compound 89, Ethyl 4-amino-6-(4-chloro-2-fluorophenyl)-3-((2,2,2-trifluoroethyl)thio)picolinate] | 0%
COC(=O)c1nc(-c2ccc(I)cc2)c(F)c(N)c1OC [Compound 23, methyl 4-amino-5-fluoro-6-(4-iodophenyl)-3-methoxypicolinate] | 80%

Same assay, conditions: post-emergence, 336 h, Table 3, 280 g ai/ha, read-out: Visual Growth Reduction (%)-14 Days after Application ECHCG

SMILES | pest or weed control at 280 g/ha
CCOC(=O)c1nc(-c2ccc(Cl)c(OC)c2F)cc(N)c1OC(F)F [Compound 8, ethyl 4-amino-6-(4-chloro-2-fluoro-3-methoxyphenyl)-3-(difluoromethoxy)picolinate] | 0%
C=Cc1nc(C(=O)OC)c(OC)c(N)c1F [Compound 12, methyl 4-amino-5-fluoro-3-methoxy-6-vinylpicolinate] | 0%

These compounds were tested on EPHHL: wild poinsettia (Euphorbia heterophylla) (assay: Post-Emergent Test I herbicidal activity). Conditions: post-emergence, 336 h, Table 3, 140 g ai/ha, read-out: Visual Growth Reduction (%)-14 Days after Application EPHHL.
Format: in vivo
Method: as §1, §2, §3, §4

SMILES | pest or weed control at 140 g/ha
COc1c(C(=O)O)nc(-c2ccc(Cl)c(C(C)F)c2F)c(F)c1N (stereo not shown) [Compound 65] | 100%
COc1c(N)cc(C(C)F)nc1C(=O)O (stereo not shown) [Compound 84, 4-amino-6-(1-fluoroethyl)-3-methoxypicolinic acid] | 0%
COC(=O)c1nc(-c2ccc(I)c(F)c2)c(F)c(N)c1OC [Compound 27] | 100%
CCOC(=O)c1nc(-c2ccc(Cl)cc2F)cc(N)c1SCC(F)(F)F [Compound 89, Ethyl 4-amino-6-(4-chloro-2-fluorophenyl)-3-((2,2,2-trifluoroethyl)thio)picolinate] | 90%
COC(=O)c1nc(-c2ccc(I)cc2)c(F)c(N)c1OC [Compound 23, methyl 4-amino-5-fluoro-6-(4-iodophenyl)-3-methoxypicolinate] | 100%

Same assay, conditions: post-emergence, 336 h, Table 3, 280 g ai/ha, read-out: Visual Growth Reduction (%)-14 Days after Application EPHHL

SMILES | pest or weed control at 280 g/ha
CCOC(=O)c1nc(-c2ccc(Cl)c(OC)c2F)cc(N)c1OC(F)F [Compound 8, ethyl 4-amino-6-(4-chloro-2-fluoro-3-methoxyphenyl)-3-(difluoromethoxy)picolinate] | 90%
C=Cc1nc(C(=O)OC)c(OC)c(N)c1F [Compound 12, methyl 4-amino-5-fluoro-3-methoxy-6-vinylpicolinate] | 0%

What follows are compounds tested on CHEAL: lambsquarters (Chenopodium album) (assay: Post-Emergent Test I herbicidal activity). Conditions: Chenopodium album, post-emergence, 336 h, Table 3, 140 g ai/ha, read-out: Visual Growth Reduction (%)-14 Days after Application CHEAL.
Format: in vivo
Method: as §1, §2, §3, §4

SMILES | pest or weed control at 140 g/ha
COc1c(C(=O)O)nc(-c2ccc(Cl)c(C(C)F)c2F)c(F)c1N (stereo not shown) [Compound 65] | 100%
COc1c(N)cc(C(C)F)nc1C(=O)O (stereo not shown) [Compound 84, 4-amino-6-(1-fluoroethyl)-3-methoxypicolinic acid] | 30%
COC(=O)c1nc(-c2ccc(I)c(F)c2)c(F)c(N)c1OC [Compound 27] | 90%
CCOC(=O)c1nc(-c2ccc(Cl)cc2F)cc(N)c1SCC(F)(F)F [Compound 89, Ethyl 4-amino-6-(4-chloro-2-fluorophenyl)-3-((2,2,2-trifluoroethyl)thio)picolinate] | 70%
COC(=O)c1nc(-c2ccc(I)cc2)c(F)c(N)c1OC [Compound 23, methyl 4-amino-5-fluoro-6-(4-iodophenyl)-3-methoxypicolinate] | 100%

Same assay, conditions: Chenopodium album, post-emergence, 336 h, Table 3, 280 g ai/ha, read-out: Visual Growth Reduction (%)-14 Days after Application CHEAL

SMILES | pest or weed control at 280 g/ha
CCOC(=O)c1nc(-c2ccc(Cl)c(OC)c2F)cc(N)c1OC(F)F [Compound 8, ethyl 4-amino-6-(4-chloro-2-fluoro-3-methoxyphenyl)-3-(difluoromethoxy)picolinate] | 30%
C=Cc1nc(C(=O)OC)c(OC)c(N)c1F [Compound 12, methyl 4-amino-5-fluoro-3-methoxy-6-vinylpicolinate] | 70%
